Experiments:
[1] = tested on: genotype A, "Long" strain RSV; experiment: RSV-A assay (CPE protection in Hep-2 cells, ATPlite readout); type: cell-based, Human respiratory syncytial virus (HRSV); details: human respiratory syncytial virus, RSV-A Long strain, MOI 0.1, CPE protection, read-out: Human RSV-A (“Long”) EC50
Outline: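 Hep-2, 8,000 cells/well, MOI 0.1 (PFU- or TCID50-based); 2-fold compound series, duplicates; 5 d incubation; ATPlite luminescence readout; EC50.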

[2] = tested on: HMPV clinical isolate TN/1501/A1; experiment: HMPV antiviral assay Method-B (clinical isolate TN/1501/A1 in LLC-MK2 cells, ATP-Lite readout); type: cell-based, Human metapneumovirus (HMPV); details: human metapneumovirus, LLC-MK2, 144 h, hMPV WT1501 (clinical isolate TN/1501/A1), 6 days
Outline: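 EC50 derived by four-parameter logistic fit of percent cell health, measured by ATP-Lite luminescence and normalised to virus-only and uninfected-cell controls. Compounds run in duplicate from 10 μM top, 3-fold, 10 points. Infection: LLC-MK2 cells, MOI 0.014, 2 μg/mL final TPCK-trypsin, serum-free, 6 days at 37° C.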

SMILES | EC50 [1] [nM] | EC50 [2] [nM]
COc1cc(C(=O)NC[C@](O)(c2cc3c(c(-c4cccc(F)c4Cl)n2)OC[C@]3(C)C(N)=O)C(F)(F)F)cc2cc(Br)cnc12 [Example 1121] | < 200 | < 500
COc1cc(C(=O)NC[C@](O)(c2cc3c(c(-c4cccc(F)c4Cl)n2)OC[C@]3(C)C(N)=O)C2CC2)cc2cn(C3CC3)nc12 [Example 1122] | < 200 | < 500
C[C@]1(C(N)=O)COc2c1cc([C@@](O)(CNC(=O)c1cc(Cl)c3nn(C4CC4)cc3c1)C1CC1)nc2-c1cccc(F)c1Cl [Example 1123] | < 200 | < 500
COc1cc(C(=O)NC[C@](O)(c2cc3c(c(-c4cccc(F)c4Cl)n2)OC[C@]3(C)C(N)=O)C2CC2)cc2cc(Br)cnc12 [Example 1124] | < 200 | < 500
COc1cc(C(=O)NC[C@](O)(c2cc3c(c(-c4ccc(F)cc4)n2)OC[C@]3(C)C(N)=O)C2CC2)cc2cc(Br)cnc12 [Example 1125] | < 200 | < 500
COc1cc(C(=O)NC[C@](O)(c2cc3c(c(-c4cccc(F)c4Cl)n2)OC[C@]3(C)C(N)=O)C2CC2)cc2cc(Br)c(C)nc12 [Example 1126] | < 200 | < 500
COc1cc(C(=O)NC[C@](O)(c2cc3c(c(-c4cc(Cl)c(F)cc4F)n2)OC[C@]3(C)C(N)=O)C2(F)CC2)cc2cc(Br)c(C)nc12 [Example 1127] | < 200 | < 500
COc1cc(C(=O)NC[C@](O)(c2cc3c(c(-c4ccc(F)cc4)n2)OC[C@]3(C)C(N)=O)C2CC2)cc2cc(C(F)F)nnc12 [Example 1128] | < 200 | > 500
C[C@]1(C(N)=O)COc2c1cc([C@@](O)(CNC(=O)c1cc(OC3CC3)c3ncc(C#N)cc3c1)C(F)(F)F)nc2-c1ccc(F)cc1 [Example 1133] | < 200 | > 500
COc1cc(C(=O)NC[C@](O)(c2cc3c(c(-c4ccc(F)cc4)n2)OC[C@]3(C)C(N)=O)C(F)(F)F)cc2cc(C#N)cnc12 [Example 1134] | < 200 | > 500
COc1cc(C(=O)NC[C@](O)(c2cc3c(c(-c4cc(F)c(F)cc4F)n2)OC[C@]3(C)C(N)=O)C(F)(F)F)cc2cn(C3CC3)nc12 [Example 1135] | < 200 | < 500
COc1cc(C(=O)NC[C@](O)(c2cc3c(c(-c4cc(F)c(F)cc4F)n2)OC[C@]3(C)C(N)=O)C(F)(F)F)cc2cn(C(F)F)nc12 [Example 1136] | < 200 | < 500
C[C@]1(C(N)=O)COc2c1cc([C@@](O)(CNC(=O)c1ccc3nn(C4CC4)cc3c1)C(F)(F)F)nc2-c1cc(F)c(F)cc1F [Example 1139] | < 200 | < 500
COc1cc(C(=O)NC[C@](O)(c2cc3c(c(-c4cc(F)c(F)cc4F)n2)OC[C@]3(C)C(N)=O)C(F)(F)F)cc2cc(Cl)c(C)nc12 [Example 1140] | < 200 | < 500
Cc1cnc2c(Cl)cc(C(=O)NC[C@](O)(c3cc4c(c(-c5cc(F)c(F)cc5F)n3)OC[C@]4(C)C(N)=O)C(F)(F)F)cc2c1 [Example 1141] | < 200 | < 500
Cc1cnc2c(OC(F)F)cc(C(=O)NC[C@](O)(c3cc4c(c(-c5cc(F)c(F)cc5F)n3)OC[C@]4(C)C(N)=O)C(F)(F)F)cc2c1 [Example 1142] | < 200 | < 500
COc1ncc2cc(C(=O)NC[C@](O)(c3cc4c(c(-c5ccc(F)cc5)n3)OC[C@]4(C)C(N)=O)C(F)(F)F)cc(OC)c2n1 [Example 1143] | < 200 | > 500
COc1ncc2cc(C(=O)NC[C@](O)(c3cc4c(c(-c5ccc(F)cc5)n3)OC[C@]4(C)C(N)=O)C3CC3)cc(OC)c2n1 [Example 1144] | < 200 | > 500
COc1cc(C(=O)NC[C@](O)(c2cc3c(c(-c4cc(F)c(F)cc4F)n2)OC[C@]3(C)C(N)=O)C2CC2)cc2cn(C3CC3)nc12 [Example 1145] | < 200 | < 500
COc1cc(C(=O)NC[C@](O)(c2cc3c(c(-c4cc(F)c(F)cc4F)n2)OC[C@]3(C)C(N)=O)C2CC2)cc2cn(C(F)F)nc12 [Example 1146] | < 200 | < 500
COc1cc(C(=O)NC[C@](O)(c2cc3c(c(-c4cc(F)c(F)cc4F)n2)OC[C@]3(C)C(N)=O)C2CC2)cc2cn(C3(F)CC3)nc12 [Example 1147] | < 200 | < 500
C[C@]1(C(N)=O)COc2c1cc([C@@](O)(CNC(=O)c1cc(Cl)c3nn(C4CC4)cc3c1)C1CC1)nc2-c1cc(F)c(F)cc1F [Example 1148] | < 200 | < 500
COc1cc(C(=O)NC[C@](O)(c2cc3c(c(-c4cc(F)c(F)cc4F)n2)OC[C@]3(C)C(N)=O)C2CC2)cc2cc(Br)cnc12 [Example 1149] | < 200 | < 500

SMILES | EC50 [1] [nM] | EC50 [2] [nM]
COc1cc(C(=O)NC[C@](O)(c2cc3c(c(-c4cc(F)c(F)cc4F)n2)OC[C@]3(C)C(N)=O)C2CC2)cc2cc(Br)c(C)nc12 [Example 1150] | < 200 | < 500
COc1cc(C(=O)NC[C@](O)(c2cc3c(c(-c4cc(F)c(F)cc4F)n2)OC[C@]3(C)C(N)=O)C2CC2)cc2cc(Cl)c(C)nc12 [Example 1151] | < 200 | < 500
Cc1cnc2c(Cl)cc(C(=O)NC[C@](O)(c3cc4c(c(-c5cc(F)c(F)cc5F)n3)OC[C@]4(C)C(N)=O)C3CC3)cc2c1 [Example 1153] | < 200 | < 500
COc1cc(C(=O)NC[C@](O)(c2cc3c(c(-c4cc(Cl)c(F)cc4F)n2)OC[C@]3(C)C(N)=O)C2CC2)cc2cc(Br)c(C)nc12 [Example 1154] | < 200 | < 500
COc1cc(C(=O)NC[C@](O)(c2cc3c(c(-c4c(F)cc(Cl)cc4F)n2)OC[C@]3(C)C(N)=O)C2CC2)cc2cn(C3CC3)nc12 [Example 1155] | < 200 | < 500
COc1cc(C(=O)NC[C@](O)(c2cc3c(c(-c4c(F)cc(Cl)cc4F)n2)OC[C@]3(C)C(N)=O)C2CC2)cc2cn(C(F)F)nc12 [Example 1156] | < 200 | < 500
COc1cc(C(=O)NC[C@](O)(c2cc3c(c(-c4c(F)cc(Cl)cc4F)n2)OC[C@]3(C)C(N)=O)C2CC2)cc2cn(C3(F)CC3)nc12 [Example 1157] | < 200 | < 500
C[C@]1(C(N)=O)COc2c1cc([C@@](O)(CNC(=O)c1cc(Cl)c3nn(C4CC4)cc3c1)C1CC1)nc2-c1c(F)cc(Cl)cc1F [Example 1158] | < 200 | < 500
COc1cc(C(=O)NC[C@](O)(c2cc3c(c(-c4c(F)cc(Cl)cc4F)n2)OC[C@]3(C)C(N)=O)C2CC2)cc2cc(Cl)c(C)nc12 [Example 1159] | < 200 | < 500
COc1cc(C(=O)NC[C@](O)(c2nc(-c3ccc(F)c(Cl)c3F)c3c(c2F)[C@@](C)(C(N)=O)CO3)C2CC2)cc2cn(C3CC3)nc12 [Example 1160] | < 200 | < 500
COc1cc(C(=O)NC[C@](O)(c2nc(-c3ccc(F)c(Cl)c3F)c3c(c2F)[C@@](C)(C(N)=O)CO3)C2CC2)cc2cn(C(F)F)nc12 [Example 1161] | < 200 | < 500
COc1cc(C(=O)NC[C@](O)(c2nc(-c3cc(Cl)c(F)cc3F)c3c(c2F)[C@@](C)(C(N)=O)CO3)C2CC2)cc2cn(C(F)F)nc12 [Example 1162] | < 200 | < 500
COc1cc(C(=O)NC[C@](O)(c2cc3c(c(-c4c(F)ccc(Cl)c4F)n2)OC[C@]3(C)C(N)=O)C2CC2)cc2cn(C3CC3)nc12 [Example 1163] | < 200 | < 500
COc1cc(C(=O)NC[C@](O)(c2cc3c(c(-c4c(F)ccc(Cl)c4F)n2)OC[C@]3(C)C(N)=O)C2CC2)cc2cn(C(F)F)nc12 [Example 1164] | < 200 | < 500
COc1cc(C(=O)NC[C@](O)(c2cc3c(c(-c4c(F)ccc(Cl)c4F)n2)OC[C@]3(C)C(N)=O)C2CC2)cc2cn(C3(F)CC3)nc12 [Example 1165] | < 200 | < 500
C[C@]1(C(N)=O)COc2c1cc([C@@](O)(CNC(=O)c1cc(Cl)c3nn(C4CC4)cc3c1)C1CC1)nc2-c1c(F)ccc(Cl)c1F [Example 1166] | < 200 | < 500
C[C@]1(C(N)=O)COc2c1cc([C@@](O)(CNC(=O)c1ccc3nn(C4CC4)cc3c1)C1CC1)nc2-c1c(F)ccc(Cl)c1F [Example 1167] | < 200 | < 500
COc1cc(C(=O)NC[C@](O)(c2cc3c(c(-c4c(F)ccc(Cl)c4F)n2)OC[C@]3(C)C(N)=O)C2CC2)cc2cc(Cl)c(C)nc12 [Example 1168] | < 200 | < 500
COc1cc(C(=O)NC[C@](O)(c2cc3c(c(-c4c(F)ccc(Cl)c4F)n2)OC[C@]3(C)C(N)=O)C2CC2)cc2cc(Br)c(C)nc12 [Example 1169] | < 200 | < 500
COc1cc(C(=O)NC[C@](O)(c2cc3c(c(-c4ccc(F)cc4)n2)OC[C@]3(C)C(=O)NCC(C)(C)O)C(F)(F)F)cc2cn(C3CC3)nc12 [Example 1170] | < 200 | > 500
COc1cc(C(=O)NC[C@](O)(c2cc3c(c(-c4cc(F)c(Cl)cc4F)n2)OC[C@]3(C)C(N)=O)C2CC2)cc2cn(C3CC3)nc12 [Example 1177] | < 200 | < 500
COc1cc(C(=O)NC[C@](O)(c2cc3c(c(-c4cc(F)c(Cl)cc4F)n2)OC[C@]3(C)C(N)=O)C2CC2)cc2cn(C(F)F)nc12 [Example 1178] | < 200 | < 500
C[C@]1(C(N)=O)COc2c1cc([C@@](O)(CNC(=O)c1cc(Cl)c3nn(C4CC4)cc3c1)C1CC1)nc2-c1cc(F)c(Cl)cc1F [Example 1179] | < 200 | < 500

Source: US12612412B2, “Antiviral heterocyclic compounds” (Enanta Pharmaceuticals, Inc., priority 2021, dated 2026)
